Patent US8394786B2, “Quinazoline derivatives” (Janssen Pharmaceutica N.V., priority 2003, dated 2013)

Experiments:
SKOV3 cells = test: Serum starved proliferation assay on the ovarian carcinoma SKOV3 cells (C3); assay type: cell-based; conditions: Homo sapiens, SK-OV-3, 72 h, EGF stimulated (100 ng/ml, 72 hours, serum free) or 72 hours with compounds; MTT cell viability assay; read-out: SKOV3 cell (C3): pIC50 (converted)
In short: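 MTT viability read-out in SKOV3 cells after a 24 h pre-incubation in 10% FCS, in one of two formats. EGF-stimulated version: serum-free compound exposure followed by 100 ng/ml EGF (final) for 72 h at 37 °C, 5% CO2. Otherwise, compound alone for 72 h.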

A431 cells = test: Proliferation assay on the squamous carcinoma cell line A431 cells (C5); assay type: cell-based; conditions: Homo sapiens, A-431; 72 hours with compounds; MTT cell viability assay; read-out: A431 cell (C5): pIC50 (converted)
Method: The squamous carcinoma cell line (A431) was used in a cell proliferation assay, to assess the inhibitory effect of the compounds in whole cells.
In a first step the A431 cells were incubated for 24 hours in the presence of 10% FCS serum. In the second step the cells were incubated for 72 hours with the compounds to be tested at a final concentration of 100 ng/ml. The effect of the compounds on the cell proliferation was finally assessed in a standard MTT cell viability assay.

EGFR [1] = molecular target: T1, EGFR (Homo sapiens, UniProt P00533); test: In vitro inhibition of EGFR, Flash Plate or glass-fiber filter technology (C2); assay type: biochemical; design: 0.5 μg EGFR-kinase domain/well; conditions: EGFR-kinase domain, 5.0 μM unlabeled ATP, read-out: Kinase activity.(C2): pIC50 (converted)
In short: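 Two radiometric formats were used, each with 5.0 μM unlabeled ATP, [33P]ATP, 0.5 μg EGFR kinase domain and compounds from 1·10^−10 to 1·10^−6 M. Glass-fiber filter: 25° C for 10 min, pH 7.5, Mn2+/Mg2+, acid-stopped, phosphorimager read. Streptavidin Flash Plate: biotinylated poly(GT), pH 8.0, 30° C for 60 min.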
Target sequence in this assay (P00533 712-979 limits assumed): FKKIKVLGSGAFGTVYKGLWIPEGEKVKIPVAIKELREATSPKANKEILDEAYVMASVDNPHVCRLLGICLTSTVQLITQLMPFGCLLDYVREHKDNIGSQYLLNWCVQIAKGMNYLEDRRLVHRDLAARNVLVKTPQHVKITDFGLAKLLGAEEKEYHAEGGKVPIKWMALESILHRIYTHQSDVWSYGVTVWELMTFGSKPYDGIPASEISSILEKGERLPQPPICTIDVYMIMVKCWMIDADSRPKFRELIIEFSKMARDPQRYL

EGFR [2] = molecular target: T1, EGFR; test: In vitro inhibition of EGFR using a scintillant proximity assay (C1); assay type: biochemical; design: 0.5 μg EGFR-kinase domain/well; conditions: EGFR-kinase domain, poly(GT)biotin, 5.0 μM unlabeled ATP, 30° C. 60 minutes; read-out: EGFR SPA (C1): IC50
Method: In the present EGFR SPA kinase reaction assay, a kinase substrate consisting of biotinylated poly(L-glutamic acid-L-tyrosine) (poly(GT)biotin), is incubated with the aforementioned protein in the presence of (^33P) radiolabeled ATP. (^33P) phosphorylation of the substrate is subsequently measured as light energy emitted using streptavidin-coated SPA beads (Amersham Pharmacia Biotech) by trapping and quantifying the binding of the biotin tagged and radiolabeled substrate.
The EGFR SPA kinase reaction is performed at 30° C. for 60 minutes in a 96-well microtiter plate. For each of the tested compounds a full dose response 1·10^−6M to 1·10^−10M has been performed. IRESSA® and Tarceva™ (erlotinib) were used as reference compounds. The 100 μl reaction volume contains 54.5 mM TrisHCl pH 8.0, 10 mM MgCl2, 100 μM Na3VO4, 5.0 μM unlabeled ATP, 1 mM DTT, 0.009% BSA, 0.8 μCi ^33P-ATP, 0.35 μg/well poly(GT)biotin and 0.5 μg EGFR-kinase domain/well. The reaction is stopped by adding to each well 100 μl of the streptavidin beads (10 mg/ml in PBS+100 mM EDTA+100 μM ATP). The plates are than shaked at 300 rpm for 30 min to allow binding of the biotinylated substrate to the streptavidin coated beads. Than the beads are allowed to settle at the bottom of the plate for 30 minutes. The microtiterplates are centrifuges at 800 rpm for 10 minutes and the amount of phosphorylated (^33P) Poly(GT)biotin is determined by counting (30 sec/well) in a microtiterplate scintillation counter.
Target sequence in this assay (P00533 712-979 limits assumed): as above

EGFR [3] = molecular target: T1, EGFR; test: ELISA assay of EGFR tyrosine kinase activity (C4); assay type: biochemical; conditions: poly(Glu, Tyr) coated plate, 5 μM ATP, room temperature 10 min
Method: The EGFR ELISA is generally described by Yang, E. B. et al., 2001, Biochimica et Biophysica Acta, 1550; 144.
For the determination of EGFR tyrosine kinase activity, 100 μl of 0.4 μg/ml poly(Glu, Tyr) in PBS was coated per well on a 96-well microplate at 37° C. overnight. […] After washing three times with PBS the plates were either used immediately or stored at 4° C. Prior to the determination of the EGFR tyrosine kinase activity, the coated plates were washed two times with PBS. Next, to each well 88 μl of an ATP dilution (50 mM Tris HCl pH 8.0, 10 mM MgCl2, 100 μM Na3VO4, 1 mM DTT, 5 μM ATP) and 2 μl with various concentrations of the compounds to be tested, were added. The EGFR tyrosine kinase-catalysed reaction was started by the addition of 10 μl of diluted EGFR (dilution→0.05 μg per well enzyme diluted in 50 mM TrisHCl pH 8.0+0.1% BSA). After incubation at room temperature for 10 min, the reaction was stopped by washing five times with PBS with 0.1% Tween 20. Subsequently […] of recombinant anti-phosphotyrosine horseradish peroxidase conjugate (1:2500) in BSA (10 mg/ml in PBS) was added. After incubation at room temperature for 1 h, the microplate was washed five times with PBS/Tween 20. After the microplate was incubated with 100 μl of TMB-ELISA (1-step Ultra TMB-ELISA, Pierce) until colour development, 100 μl of 0.5 M H2SO4 was added to stop the reaction, and it was read in a microplate reader at 450-655 nm.
Target sequence in this assay (P00533 25-1210): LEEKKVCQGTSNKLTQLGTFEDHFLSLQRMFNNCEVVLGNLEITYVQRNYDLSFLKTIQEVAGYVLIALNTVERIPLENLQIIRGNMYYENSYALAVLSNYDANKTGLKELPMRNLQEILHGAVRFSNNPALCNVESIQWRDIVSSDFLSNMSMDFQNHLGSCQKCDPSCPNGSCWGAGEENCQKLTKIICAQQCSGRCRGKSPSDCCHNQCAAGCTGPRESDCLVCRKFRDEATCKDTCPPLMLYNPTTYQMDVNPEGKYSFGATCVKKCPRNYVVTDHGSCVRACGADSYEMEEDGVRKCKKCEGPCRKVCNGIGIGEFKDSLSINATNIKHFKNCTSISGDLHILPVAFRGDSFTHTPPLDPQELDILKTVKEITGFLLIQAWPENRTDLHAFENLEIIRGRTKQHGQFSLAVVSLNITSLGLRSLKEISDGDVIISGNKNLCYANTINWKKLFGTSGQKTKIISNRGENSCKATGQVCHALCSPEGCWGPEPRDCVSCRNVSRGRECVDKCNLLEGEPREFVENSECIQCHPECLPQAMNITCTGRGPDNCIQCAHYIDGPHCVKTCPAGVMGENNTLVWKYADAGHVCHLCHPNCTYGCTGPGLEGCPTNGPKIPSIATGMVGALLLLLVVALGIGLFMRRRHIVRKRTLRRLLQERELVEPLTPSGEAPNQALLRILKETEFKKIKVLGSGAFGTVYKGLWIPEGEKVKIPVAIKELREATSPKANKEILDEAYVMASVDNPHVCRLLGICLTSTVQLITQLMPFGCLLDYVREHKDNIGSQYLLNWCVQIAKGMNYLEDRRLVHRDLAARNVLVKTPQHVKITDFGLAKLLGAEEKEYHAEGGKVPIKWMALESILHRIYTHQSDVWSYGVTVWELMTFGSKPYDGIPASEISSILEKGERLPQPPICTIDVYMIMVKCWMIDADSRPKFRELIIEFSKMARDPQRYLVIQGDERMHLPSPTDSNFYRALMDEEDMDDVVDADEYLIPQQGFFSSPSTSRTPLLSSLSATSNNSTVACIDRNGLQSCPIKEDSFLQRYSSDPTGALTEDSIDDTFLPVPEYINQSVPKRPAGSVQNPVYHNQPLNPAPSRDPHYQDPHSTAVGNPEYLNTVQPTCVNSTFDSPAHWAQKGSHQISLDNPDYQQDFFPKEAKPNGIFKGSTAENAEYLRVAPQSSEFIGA

For `COc1cc2ncnc3c2cc1OC(=O)CCCCCOc1c(C)cccc1N3` [Compound 1, 4,6-ethanediylidene-19H-pyrimido[4,5-b][6,13,1]benzodioxaazacyclo-pentadecin-8(9H)-one, 10,11,12,13-tetrahydro-20-methoxy-15-methyl-], the IC50 (SKOV3 cells) was > 2 µM, the IC50 (A431 cells) was > 1 µM and the IC50 (EGFR [1]) was > 10 µM. The IC50 (EGFR [2]) was > 0.1 µM and the IC50 (EGFR [3]) was > 1 µM.

With `COc1cc2ncnc3c2cc1OCCCCCCOc1c(Cl)cccc1N3` [Compound 2, 4,6-ethanediylidene-19H-pyrimido[4,5-b][6,13,1]benzodioxaazacyclo-pentadecine, 15-chloro-8,9,10,11,12,13-hexahydro-20-methoxy-] the IC50 (SKOV3 cells) was > 2 µM, the IC50 (A431 cells) was > 1 µM and the IC50 (EGFR [1]) was 0.1 µM. For the same molecule, the IC50 (EGFR [2]) was > 0.1 µM, the IC50 (EGFR [3]) was > 1 µM and the melting point was 255.5 to 260.2 °C.

With `COc1cc2ncnc3c2cc1OCCCCCCOc1ccc(Cl)cc1N3` [Compound 3, 4,6-ethanediylidene-19H-pyrimido[4,5-b][6,13,1]benzodioxaazacyclo-pentadecine, 17-chloro-8,9,10,11,12,13-hexahydro-20-methoxy-] the IC50 (SKOV3 cells) was 1.35 µM, the IC50 (A431 cells) was > 1 µM and the IC50 (EGFR [1]) was 0.0158 µM. The IC50 (EGFR [2]) was 0.00361 µM, the IC50 (EGFR [3]) was > 1 µM and the melting point was 241.5 to 242.7 °C.

Work on `COc1cc2ncnc3c2cc1OCCCCCOc1ccc(Cl)cc1N3` [Compound 4, 4,6-ethanediylidene-8H,18H-pyrimido[4,5-b][6,12,1]benzo-dioxaazacyclotetradecine, 16-chloro-9,10,11,12-tetrahydro-19-methoxy-] yielded an IC50 (SKOV3 cells) of 2.88 µM, an IC50 (EGFR [1]) of 0.0501 µM and an IC50 (EGFR [2]) of 0.0326 µM. The IC50 (EGFR [3]) was 0.556 µM and the melting point was 213.5 to 221.2 °C.

In the case of `COc1cc2ncnc3c2cc1OCCCCCCOc1ccccc1N3` [Compound 5, 4,6-ethanediylidene-19H-pyrimido[4,5-b][6,13,1]benzodioxaazacyclo-pentadecine, 8,9,10,11,12,13-hexahydro-20-methoxy-], the IC50 (SKOV3 cells) is reported as 4.79 µM, the IC50 (EGFR [1]) is reported as 0.398 µM and the IC50 (EGFR [2]) is reported as 0.0811 µM. For the same molecule, the IC50 (EGFR [3]) was > 1 µM and the melting point was 243.3 to 251.2 °C.

For `COc1cc2ncnc3c2cc1OCCCCCCOc1ccc(Br)cc1N3` [Compound 6, 4,6-ethanediylidene-19H-pyrimido[4,5-b][6,13,1]benzodioxaazacyclo-pentadecine, 17-bromo-8,9,10,11,12,13-hexahydro-20-methoxy-], the IC50 (SKOV3 cells) was 1.82 µM, the IC50 (EGFR [1]) was 0.0251 µM and the IC50 (EGFR [2]) was 0.0044 µM. It also gave an IC50 (EGFR [3]) of 0.359 µM and a melting point of 228.6 to 234.8 °C.

With `COc1cc2ncnc3c2cc1OCCCCCCCOc1ccc(Cl)cc1N3` [Compound 7, 4,6-ethanediylidene-8H,20H-pyrimido[4,5-b][6,14,1]benzo-dioxaazacyclohexadecine, 18-chloro-9,10,11,12,13,14-hexahydro-21-methoxy-] the IC50 (SKOV3 cells) was > 10 µM, the IC50 (EGFR [1]) was 0.0794 µM and the IC50 (EGFR [2]) was 0.00664 µM. The IC50 (EGFR [3]) was > 1 µM and the melting point was 240.6 to 243.7 °C.

With `COc1cc2ncnc3c2cc1OCCCCCCCCOc1ccc(Cl)cc1N3` [Compound 8, 4,6-ethanediylidene-21H-pyrimido[4,5-b][6,15,1]benzodioxaazacyclo-heptadecine, 19-chloro-8,9,10,11,12,13,14,15-octahydro-22-methoxy-] the IC50 (SKOV3 cells) was > 10 µM, the IC50 (EGFR [1]) was 0.0316 µM and the IC50 (EGFR [2]) was 0.00397 µM. For the same molecule, the IC50 (EGFR [3]) was 0.329 µM and the melting point was 147.7 to 151.1 °C.

With `COc1cc2ncnc3c2cc1OCCCCCCCCCOc1ccc(Cl)cc1N3` [Compound 9, 4,6-ethanediylidene-8H,22H-pyrimido[4,5-b][6,16,1]benzo-dioxaazacyclooctadecine, 20-chloro-9,10,11,12,13,14,15,16-octahydro-23-methoxy-] the IC50 (EGFR [1]) was 0.0398 µM, the IC50 (EGFR [2]) was 0.00679 µM and the IC50 (EGFR [3]) was > 1 µM. It also gave a melting point of 177.4 to 183.8 °C.
